# Species: Rattus norvegicus
# Experiment: Open TG-GATES - Regimen: Single
# Format: toxicity, organism-based, Sprague-Dawley
# Parameters: regimen Single, gender Male, age 6 weeks
# Details: in vivo, po, 0 mg/kg, route gavage, dose level Control; for APTT / Bas / Eos / Fbg / Hb / Ht / Lym / MCH / MCHC / MCV / Mono / Neu / PT / Plat / RBC / Ret / WBC: tissue Blood; for KIDNEY_L / KIDNEY_R / KIDNEY_TOTAL: tissue Kidney; for LIVER: tissue Liver; for ALP / ALT / AST / BUN / CRE / DBIL / GLC / K / Na / PL / RALB / TBIL / TC / TG / TP / gamma-GTP: tissue Plasma
structure (smiles),measurement,setting,value
CN1C(=O)CN=C(c2ccccc2)c2cc(Cl)ccc21 [DIAZEPAM],TERMINAL_BW,3 h,214.4 g
same,APTT,3 h,15.9 s
same,Bas,3 h,0%
same,Eos,3 h,1%
same,Fbg,3 h,213.4 mg/dL
same,Hb,3 h,13.5 g/dL
same,Ht,3 h,40.5%
same,Lym,3 h,71.2%
same,MCH,3 h,22.3 pg
same,MCHC,3 h,33.3%
same,MCV,3 h,66.9 fL
same,Mono,3 h,8.6%
same,Neu,3 h,19.6%
same,PT,3 h,12.4 s
same,Plat,3 h,101 x10_4/uL
same,RBC,3 h,606 x10_4/ul
same,Ret,3 h,8.2%
same,WBC,3 h,109.8 x10_2/uL
same,KIDNEY_L,3 h,1 g
same,KIDNEY_R,3 h,1 g
same,KIDNEY_TOTAL,3 h,2 g
same,LIVER,3 h,10.2 g
same,ALP,3 h,836.4 IU/L
same,ALT,3 h,31.8 IU/L
same,AST,3 h,66.6 IU/L
same,BUN,3 h,14.2 mg/dL
same,CRE,3 h,0.5 mg/dL
same,DBIL,3 h,0.028 mg/dL
same,GLC,3 h,187.4 mg/dL
same,K,3 h,5.2 meq/L
same,Na,3 h,138.8 meq/L
same,PL,3 h,131.6 mg/dL
same,RALB,3 h,3.7 g/dL
same,TBIL,3 h,0.4 mg/dL
same,TC,3 h,71 mg/dL
same,TG,3 h,52.2 mg/dL
same,TP,3 h,5.5 g/dL
same,gamma-GTP,3 h,1.8 IU/L
same,TERMINAL_BW,6 h,213 g
same,APTT,6 h,16.6 s
same,Bas,6 h,0%
same,Eos,6 h,0.6%
same,Fbg,6 h,216 mg/dL
same,Hb,6 h,13.8 g/dL
same,Ht,6 h,41.8%
same,Lym,6 h,77.2%
same,MCH,6 h,21.4 pg
same,MCHC,6 h,33.1%
same,MCV,6 h,64.6 fL
same,Mono,6 h,6.4%
same,Neu,6 h,15.8%
same,PT,6 h,12.6 s
same,Plat,6 h,106.4 x10_4/uL
same,RBC,6 h,647 x10_4/ul
same,Ret,6 h,8.5%
same,WBC,6 h,105.2 x10_2/uL
same,KIDNEY_L,6 h,1 g
same,KIDNEY_R,6 h,1 g
same,KIDNEY_TOTAL,6 h,2 g
same,LIVER,6 h,9.6 g
same,ALP,6 h,878 IU/L
same,ALT,6 h,29.6 IU/L
same,AST,6 h,60 IU/L
same,BUN,6 h,9.8 mg/dL
same,CRE,6 h,0.5 mg/dL
same,DBIL,6 h,0.016 mg/dL
same,GLC,6 h,203 mg/dL
same,K,6 h,4.9 meq/L
same,Na,6 h,138.6 meq/L
same,PL,6 h,140 mg/dL
same,RALB,6 h,3.7 g/dL
same,TBIL,6 h,0.3 mg/dL
same,TC,6 h,74.8 mg/dL
same,TG,6 h,84.2 mg/dL
same,TP,6 h,5.6 g/dL
same,gamma-GTP,6 h,1.2 IU/L
same,TERMINAL_BW,9 h,212.8 g
same,APTT,9 h,15.7 s
same,Bas,9 h,0%
same,Eos,9 h,0.8%
same,Fbg,9 h,215.4 mg/dL
same,Hb,9 h,13.6 g/dL
same,Ht,9 h,41.5%
same,Lym,9 h,79.2%
same,MCH,9 h,21.7 pg
same,MCHC,9 h,32.8%
same,MCV,9 h,66 fL
same,Mono,9 h,5.6%
same,Neu,9 h,14.4%
same,PT,9 h,12.7 s
same,Plat,9 h,101.7 x10_4/uL
same,RBC,9 h,628.4 x10_4/ul
same,Ret,9 h,8.2%
same,WBC,9 h,117.7 x10_2/uL
same,KIDNEY_L,9 h,1 g
same,KIDNEY_R,9 h,1 g
same,KIDNEY_TOTAL,9 h,2 g
same,LIVER,9 h,9 g
same,ALP,9 h,712.4 IU/L
same,ALT,9 h,29 IU/L
same,AST,9 h,59.8 IU/L
same,BUN,9 h,10.6 mg/dL
same,CRE,9 h,0.6 mg/dL
same,DBIL,9 h,0.038 mg/dL
same,GLC,9 h,204 mg/dL
same,K,9 h,4.8 meq/L
same,Na,9 h,138.6 meq/L
same,PL,9 h,130.4 mg/dL
same,RALB,9 h,3.7 g/dL
same,TBIL,9 h,0.4 mg/dL
same,TC,9 h,75 mg/dL
same,TG,9 h,41.6 mg/dL
same,TP,9 h,5.5 g/dL
same,gamma-GTP,9 h,1.8 IU/L
same,TERMINAL_BW,24 h,227.4 g
same,APTT,24 h,16.7 s
same,Bas,24 h,0%
same,Eos,24 h,1%
same,Fbg,24 h,210.2 mg/dL
same,Hb,24 h,13.7 g/dL
same,Ht,24 h,41%
same,Lym,24 h,81.6%
same,MCH,24 h,21.9 pg
same,MCHC,24 h,33.4%
same,MCV,24 h,65.8 fL
same,Mono,24 h,5.8%
same,Neu,24 h,12.2%
same,PT,24 h,12.2 s
same,Plat,24 h,108.9 x10_4/uL
same,RBC,24 h,624.2 x10_4/ul
same,Ret,24 h,7.7%
same,WBC,24 h,114.5 x10_2/uL
same,KIDNEY_L,24 h,1.1 g
same,KIDNEY_R,24 h,1 g
same,KIDNEY_TOTAL,24 h,2.1 g
same,LIVER,24 h,11.2 g
same,ALP,24 h,817.8 IU/L
same,ALT,24 h,33.4 IU/L
same,AST,24 h,58.4 IU/L
same,BUN,24 h,15.2 mg/dL
same,CRE,24 h,0.5 mg/dL
same,DBIL,24 h,0.006 mg/dL
same,GLC,24 h,191.2 mg/dL
same,K,24 h,5.1 meq/L
same,Na,24 h,138.6 meq/L
same,PL,24 h,131.8 mg/dL
same,RALB,24 h,3.9 g/dL
same,TBIL,24 h,0.3 mg/dL
same,TC,24 h,63.2 mg/dL
same,TG,24 h,112.8 mg/dL
same,TP,24 h,5.8 g/dL
same,gamma-GTP,24 h,1 IU/L
